Patent publication EP3463364B1, “PYRAZINE DERIVATIVES FOR USE IN THE TREATMENT OF DISEASES ASSOCIATED WITH CELL CYCLE DYSREGULATION” (University of Patras, priority 2016, dated 2017)

Assays:
[1] = biological target: T1, exogenous Geminin-Cdtl protein complex (Homo sapiens, UniProt O75496+Q9H211); assay: FRET acceptor photobleaching cellular assay in co-transfected MCF7 cells (Cdt1-GFP & Geminin-dhcRed); format: cell-based; details: 100µM, 24-hour incubation, MCF7 cells co-transfected with Cdt1-GFP & Geminin-dhcRed (Fig. 3)
T1 construct: expressed in transfected cells; host or cells: MCF7
T1 sequence (Q9H211 1-546): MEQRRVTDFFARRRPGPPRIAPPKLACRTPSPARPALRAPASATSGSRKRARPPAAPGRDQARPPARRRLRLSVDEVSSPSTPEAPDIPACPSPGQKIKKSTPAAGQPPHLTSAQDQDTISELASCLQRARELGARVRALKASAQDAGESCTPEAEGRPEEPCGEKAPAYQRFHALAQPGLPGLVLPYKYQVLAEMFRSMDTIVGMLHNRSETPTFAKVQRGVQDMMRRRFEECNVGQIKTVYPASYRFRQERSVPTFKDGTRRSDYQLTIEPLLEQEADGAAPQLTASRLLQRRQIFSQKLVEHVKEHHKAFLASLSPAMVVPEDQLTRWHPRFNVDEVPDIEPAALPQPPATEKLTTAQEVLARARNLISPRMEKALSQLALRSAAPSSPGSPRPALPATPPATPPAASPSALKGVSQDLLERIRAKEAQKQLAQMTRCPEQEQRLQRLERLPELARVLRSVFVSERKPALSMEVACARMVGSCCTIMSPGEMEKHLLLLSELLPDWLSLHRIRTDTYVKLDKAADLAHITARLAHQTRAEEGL
T1 sequence (O75496 1-209): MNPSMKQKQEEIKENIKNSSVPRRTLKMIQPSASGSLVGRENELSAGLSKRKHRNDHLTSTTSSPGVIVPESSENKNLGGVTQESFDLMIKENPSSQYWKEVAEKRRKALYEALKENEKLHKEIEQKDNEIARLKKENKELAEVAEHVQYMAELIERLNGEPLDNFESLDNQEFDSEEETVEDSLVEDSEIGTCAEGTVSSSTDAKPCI
Description: A cellular assay was developed and applied using epithelial cells of breast adenocarcinoma (MCF7), for the purpose of the ex vivo study of the ability of the synthetic chemical compound AF-615/30368009 to inhibit formation and/or disrupt the exogenous Geminin-Cdtl protein complex.
The appropriate number of cells was seeded onto glass coverslips and cells were allowed in culture in order to adhere. Then they were transiently co-transfected with plasmid expression vectors pcDNA3.1-EGFP and pdiHcRed-N1 containing the DNA regions encoding for the proteins Cdtl-GFP and Geminin-dhcRed respectively. Three to five hours after co-transfection, the medium was removed and replaced with fresh medium which contained the synthetic chemical compound AF-615/30368009 at a concentration of 100µM. […]
MCF7 cancer cells fixed as described above were used to perform FRET acceptor photobleaching. In order to quantify the efficiency (E) of the FRET phenomenon, the following equation was used: (4) E = (Dpost - Dpre)/Dpost, wherein Dpre and Dpost is the mean value of fluorescence intensity of the donor before and after photobleaching of the acceptor, respectively.
For the purposes of this invention the inhibitory effect of the synthetic compound AF-615/30368009 on the exogenous Geminin-Cdtl protein complex was calculated as the percent (%) change in efficiency (E) of the FRET phenomenon. […]

MCF7 cancer cells = assay: Cell cycle progression by propidium iodide flow cytometry, cancer cells; format: cell-based; details: 100 µM, 23hrs
Description: Since the proteins Geminin and Cdtl are key regulators of the cell cycle, the effect of the synthetic compound on the development of the cancer cell and normal cell cycle was studied. Staining of the genetic material of the cells was performed with propidium iodide and the technique of flow cytometry was applied for their separation, based on the amount of genetic material.
MCF7 cells were used as cancer cells, whereas primary cells and particularly embryonic mouse fibroblasts (Mouse Embryonic Fibroblasts, MEFs) were used as normal cells. The cells were incubated with the synthetic chemical compound AF-615/30368009 at a concentration of 100 µM and cultured for 23hrs in 100-mm dishes, to 80% confluency. Cells which had been incubated with only DMSO were used as a negative control sample. The next day of the incubation, cells were harvested using trypsin. […] The experiments were conducted using a Becton Dickinson flow cytometer and the data were analyzed by the WinMDi software version 2.8.
The graphs shown in Fig. 5 are representative of at least two independent experiments. The x axis represents the intensity of the fluorescence of propidium iodide and proportionally the amount of DNA content of the cells, while the y-axis corresponds to the number of events for each phase of the cell cycle.

With `O=C(NNC(=S)N1CCOCC1)c1cnccn1` [AF-615/30368009, N'-(morpholine-4-carbothioyl)pyrazine-2-carbohydrazide] as the compound, how does the “efficiency (E) of the FRET phenomenon” value [1] read?
Its value is “decrease in (E), although not statistically significant”.

What about the “percentage (%) of cells in G0/G1 and S phases” value (MCF7 cancer cells; MCF7, compared to DMSO control (Fig. 5B vs 5A)) of the same compound?
The value was “significant increase”.

And the “population of cells corresponding to the G2/M phase of the cell cycle” value (MCF7 cancer cells; MCF7, in comparison to DMSO control (Fig. 5B vs 5A))?
The value was “extremely limited”.
